Measurements taken from US20180243273A1, “Composition for Intravesical Administration for Treating Bladder Pain” (priority 2017, published 2018).

Assay: Storage of compositions with/without nitrogen-gassing and ascorbic acid, assay and impurities
Format: physicochemical
Settings: for Assay / Impurities: phosphate buffer
Procedure: A possible beneficial effect of nitrogen-gassing during manufacturing and storage was assessed. Selected compositions were manufactured by dissolution of API via stirring for 24 h and stored after treatment with/without nitrogen at 25° C. or 6° C. for up to 28 days.
The manufactured batches consisted of phosphate buffer and vitamin E TPGS and were compared to compositions containing ascorbic acid 1%, additionally. API was used at 0.01 wt.-%, 0.02 wt.-% or 0.04 w.-%. The compositions were saturated with API, where 10 mg, 20 mg or 40 mg were dissolved in 100 g buffer containing 0.5 wt.-%, wt.-1% or 2 wt.-% vitamin E TPGS, respectively. The compositions were transferred into polystyrene bottles and stored at 25° C. or 6° C. A part of the compositions was treated with nitrogen during manufacturing and gassed with nitrogen prior to sealing (see FIG. 18). The compositions were tested for assay and purity of API after manufacturing, as well as after 7, 14 and 28 days.

[1] = vitamin E TPGS 1%, no Asc., N2 +, API 0.02%, 25° C., t = 28 d
[2] = vitamin E TPGS 1%, no Asc., N2 +, API 0.02%, t = 0
[3] = vitamin E TPGS 1%, no Asc., N2 −, API 0.02%, 6° C., t = 7 d
[4] = vitamin E TPGS 1%, no Asc., N2 −, API 0.02%, 6° C., t = 14 d
[5] = vitamin E TPGS 1%, no Asc., N2 −, API 0.02%, 6° C., t = 28 d
[6] = vitamin E TPGS 1%, no Asc., N2 −, API 0.02%, 25° C., t = 7 d
[7] = vitamin E TPGS 1%, no Asc., N2 −, API 0.02%, 25° C., t = 14 d
[8] = vitamin E TPGS 1%, no Asc., N2 −, API 0.02%, 25° C., t = 28 d
[9] = vitamin E TPGS 1%, no Asc., N2 −, API 0.02%, t = 0
[10] = vitamin E TPGS 2%, Asc. 1%, N2 +, API 0.04%, 6° C., t = 7 d
[11] = vitamin E TPGS 2%, Asc. 1%, N2 +, API 0.04%, 6° C., t = 14 d
[12] = vitamin E TPGS 2%, Asc. 1%, N2 +, API 0.04%, 6° C., t = 28 d
[13] = vitamin E TPGS 2%, Asc. 1%, N2 +, API 0.04%, 25° C., t = 7 d
[14] = vitamin E TPGS 2%, Asc. 1%, N2 +, API 0.04%, 25° C., t = 14 d
[15] = vitamin E TPGS 2%, Asc. 1%, N2 +, API 0.04%, 25° C., t = 28 d
[16] = vitamin E TPGS 2%, Asc. 1%, N2 +, API 0.04%, t = 0
[17] = vitamin E TPGS 2%, Asc. 1%, N2 −, API 0.04%, 6° C., t = 7 d
[18] = vitamin E TPGS 2%, Asc. 1%, N2 −, API 0.04%, 6° C., t = 14 d
[19] = vitamin E TPGS 2%, Asc. 1%, N2 −, API 0.04%, 6° C., t = 28 d
[20] = vitamin E TPGS 2%, Asc. 1%, N2 −, API 0.04%, 25° C., t = 7 d
[21] = vitamin E TPGS 2%, Asc. 1%, N2 −, API 0.04%, 25° C., t = 14 d
[22] = vitamin E TPGS 2%, Asc. 1%, N2 −, API 0.04%, 25° C., t = 28 d
[23] = vitamin E TPGS 2%, Asc. 1%, N2 −, API 0.04%, t = 0
[24] = vitamin E TPGS 2%, no Asc., N2 +, API 0.04%, 6° C., t = 7 d
[25] = vitamin E TPGS 2%, no Asc., N2 +, API 0.04%, 6° C., t = 14 d
[26] = vitamin E TPGS 2%, no Asc., N2 +, API 0.04%, 6° C., t = 28 d
[27] = vitamin E TPGS 2%, no Asc., N2 +, API 0.04%, 25° C., t = 7 d
[28] = vitamin E TPGS 2%, no Asc., N2 +, API 0.04%, 25° C., t = 14 d
[29] = vitamin E TPGS 2%, no Asc., N2 +, API 0.04%, 25° C., t = 28 d
[30] = vitamin E TPGS 2%, no Asc., N2 +, API 0.04%, t = 0
[31] = vitamin E TPGS 2%, no Asc., N2 −, API 0.04%, 6° C., t = 7 d
[32] = vitamin E TPGS 2%, no Asc., N2 −, API 0.04%, 6° C., t = 14 d
[33] = vitamin E TPGS 2%, no Asc., N2 −, API 0.04%, 6° C., t = 28 d
[34] = vitamin E TPGS 2%, no Asc., N2 −, API 0.04%, 25° C., t = 7 d
[35] = vitamin E TPGS 2%, no Asc., N2 −, API 0.04%, 25° C., t = 14 d
[36] = vitamin E TPGS 2%, no Asc., N2 −, API 0.04%, 25° C., t = 28 d
[37] = vitamin E TPGS 2%, no Asc., N2 −, API 0.04%, t = 0

Q: Which results are given for `CN(C)[C@]1(c2cccc(F)c2)CC[C@]2(CC1)c1[nH]c3ccccc3c1CCN2C(=O)/C=C/c1ccccc1` [API, cis-(E)-4-(3-fluorophenyl)-2′,3′,4′,9′-tetrahydro-N,N-dimethyl-2′-(1-oxo-3-phenyl-2-propenyl)-spiro[cyclohexane-1,1′[1H]-pyrido[3,4-b]indol]-4-amine]?
A: Assay [1]: 93.95 µg/mL; Impurities [1]: 0.85 % (a/a); Assay [2]: 93.15 µg/mL; Impurities [2]: 0.63 % (a/a); Assay [3]: 92.96 µg/mL; Impurities [3]: 0.66 % (a/a); Assay [4]: 93.12 µg/mL; Impurities [4]: 0.82 % (a/a); Assay [5]: 93.21 µg/mL; Impurities [5]: 1.15 % (a/a); Assay [6]: 93.12 µg/mL; Impurities [6]: 0.74 % (a/a); Assay [7]: 93.69 µg/mL; Impurities [7]: 1.01 % (a/a); Assay [8]: 93.67 µg/mL; Impurities [8]: 0.80 % (a/a); Assay [9]: 92.32 µg/mL; Impurities [9]: 0.63 % (a/a); Assay [10]: 218.73 µg/mL; Impurities [10]: 0.72 % (a/a); Assay [11]: 218.92 µg/mL; Impurities [11]: 0.95 % (a/a); Assay [12]: 219.23 µg/mL; Impurities [12]: 0.68 % (a/a); Assay [13]: 209.88 µg/mL; Impurities [13]: 1.22 % (a/a); Assay [14]: 210.66 µg/mL; Impurities [14]: 1.08 % (a/a); Assay [15]: 190.68 µg/mL; Impurities [15]: 1.54 % (a/a); Assay [16]: 217.91 µg/mL; Impurities [16]: 0.62 % (a/a); Assay [17]: 222.15 µg/mL; Impurities [17]: 0.75 % (a/a); Assay [18]: 226.12 µg/mL; Impurities [18]: 0.85 % (a/a); Assay [19]: 225.09 µg/mL; Impurities [19]: 0.79 % (a/a); Assay [20]: 222.30 µg/mL; Impurities [20]: 0.92 % (a/a); Assay [21]: 213.85 µg/mL; Impurities [21]: 1.58 % (a/a); Assay [22]: 197.06 µg/mL; Impurities [22]: 1.67 % (a/a); Assay [23]: 218.96 µg/mL; Impurities [23]: 0.63 % (a/a); Assay [24]: 216.81 µg/mL; Impurities [24]: 0.53 % (a/a); Assay [25]: 216.54 µg/mL; Impurities [25]: 0.71 % (a/a); Assay [26]: 216.93 µg/mL; Impurities [26]: 0.46 % (a/a); Assay [27]: 215.81 µg/mL; Impurities [27]: 0.57 % (a/a); Assay [28]: 215.34 µg/mL; Impurities [28]: 0.82 % (a/a); Assay [29]: 217.45 µg/mL; Impurities [29]: 0.72 % (a/a); Assay [30]: 214.85 µg/mL; Impurities [30]: 0.58 % (a/a); Assay [31]: 214.61 µg/mL; Impurities [31]: 0.37 % (a/a); Assay [32]: 214.30 µg/mL; Impurities [32]: 0.72 % (a/a); Assay [33]: 214.68 µg/mL; Impurities [33]: 0.49 % (a/a); Assay [34]: 214.19 µg/mL; Impurities [34]: 0.54 % (a/a); Assay [35]: 213.44 µg/mL; Impurities [35]: 0.80 % (a/a); Assay [36]: 215.45 µg/mL; Impurities [36]: 0.67 % (a/a); Assay [37]: 212.92 µg/mL; Impurities [37]: 0.60 % (a/a); sum of all impurities (storage temperature of 6° C., all compositions, up to 28 days): below 1 % (a/a)
